Experimental data taken from patent US8822198B2, “Method for optimizing a biopharmaceutical production process” (priority 2009, dated 2014).
“Also recorded” adds a separate entry of the source.

Assays:
CHO [1] = assay: Bioreactor fermentation, pCO2 regulated/unregulated and buffer systems (Example 3); type: cell-based, Chinese Hamster
Description: The fermentation using the multifermenter is again preceded by an optimising test using SDR. In this preliminary test, in accordance with Example 1, different NaHCO3 concentrations are tested in conjunction with the media Sod-β/H and TES/K. In the experiment, in addition to the evaluation by the drop in pO2, an identically covered well plate is used having pH sensors. […] (The data from the preliminary test are not shown here.) Fermentation takes place in two multifermenters (corresponding to twelve individual fermenters) with different media combinations. The procedure and handling are based on the sections described under the headings Equipment, Methods and Operating steps. [table] The CO2 profile shown above applies to the regulated bioreactor FS 33.1. in the remaining fermenters, after the seeding (d0), for a specific length of time at a specific control magnitude, CO2(gas) is added in order to provide the cells with a minimum of dissolved CO2. […] In the context of determining cell density it was jointly decided that no further manual interventions are required for supplying CO2 gas. [table]

CHO [2] = assay: Shake flask experiment, buffer screen (Example 2); type: cell-based, Chinese Hamster; conditions: shake flasks; for cell growth / buffer performance: 11 d, incubator 1
Description: The selection of the buffer systems (cell-free) is now operated with cells. The criterion for the choice of the buffer systems used in this experiment is an acceptable osmolality and good buffer characteristics during the introduction of gas into the shake flask incubator. […] The objective is to determine the best buffer medium, in relation to the growth performance of the cell, as a basis for a subsequent fermentation in the bioreactor. The preparation is carried out analytically as precisely as possible. The pH values are adjusted by BGA comparison. Lower buffer concentrations are added by means of stock solutions. After manufacture, sterile filtration is carried out. As a safety measure the experiments are carried out with n=2. To achieve two different gas supply variants, the experiments are split between two different incubators. A summary can be found in the experiment plan. […] The analysis on d0 (day 0) was carried out immediately after the seeding under the LAF box, i.e. without any previous effect of the CO2 atmosphere of the incubator.

CHO [3] = assay: Fermentation verification buffer system (Example 4); type: cell-based, Chinese Hamster; conditions: CO2-regulated bioreactors, NaHCO3 0-16 mM, FIG. 6
Excerpt: In six CO2-regulated bioreactors the buffer systems TES and Sod-β are used with different concentrations of NaHCO3, in order to determine the optimum concentration of NaHCO3 in the medium. […] Medium B, NaHCO3-free, MOPS-free+weighed amount/stock solution buffer substance(s) • Feeding: […] NaOH (1.2M) (no CO2) • pCO2: day 0-3 5%, day 3-11 3% The buffer systems used with different concentrations of NaHCO3 are shown in Table 6. [table]

CHO [4] = conditions: acid added on day 3, FIG. 9B
Description: Different acids are added to three CO2-regulated bioreactors for a pH shift from 6.95 to 6.8 on day 3. The concentrations of the acid solutions are chosen such that the quantities of substance required, which have been determined beforehand in a titration, are present in 50 ml of solution.
The test set-up is described below: • Platform: Bioreactor/Multifermenter • Method: Fed Batch • Cell: CHO • Seeding density: 3×10^5 vc/mL • Start volume: 1.8 L • Run time: 11 days • Medium: Medium B, NaHCO3-free, MOPS-free+Sod-β (25 mM) • Feeding: Feed I continuously from day 2 • Temperature: 37° C. • pO2: 60% • Speed: 160 rpm • pH: day 0-3 7.00±0.05, day 3-11 6.80±0.05 • pH regulation: NaOH (1.2M) (no CO2)

CHO [5] = conditions: Na salt added on day 3, FIG. 8
Description: In 10 250 ml shake flasks, cells are tested for their acid tolerance with the addition of sodium salts. The salt solutions are selected such that the quantities of acids determined by titration beforehand are present in 1.5 ml of solution for a pH shift from 7.1 to 6.7. On day 3 these 1.5 ml of the different salt solutions are added to the shake flasks to simulate a pH shift.

Compound | cell growth / buffer performance (CHO [2]) | standardised product concentration (CHO [4]) | further results
O=S(=O)(O)CCNC(CO)(CO)CO [TES, N-tris(hydroxymethyl)methyl-2-aminoethanesulphonic acid] | best buffer substances | – | titre concentration compared with the control (CHO [1]; FIG. 5C, control NaHCO3 36 mmol/L): at the same level as those of the control; standardised product concentration with different NaHCO3 concentrations (CHO [3]): same product concentrations both with and without the use of NaHCO3; also recorded: identical product concentrations
Cl [hydrochloric acid] | – | same product concentrations | –
O=S(=O)(O)O [sulphuric acid] | – | same product concentrations | –
O=P(O)(O)O [phosphoric acid] | – | same product concentrations | –
CC(=O)[O-].[Na+] [sodium acetate] | – | – | toxic effect on cell growth (CHO [5]): toxic effect
NC(CO)(CO)CO [Trizma base] | runs poorly | – | toxicity (CHO [2]; any concentration, pH stable): may be some toxicity
O.O.O.O.O.O=P([O-])([O-])OC(CO)CO.[Na+].[Na+] [Sod-β, sodium-β-glycerophosphate-pentahydrate] | best buffer substances | – | standardised product concentration with different NaHCO3 concentrations (CHO [3]): not dependent on the amount of NaHCO3 in the medium; also recorded: productivity of the cells is independent of the concentration of NaHCO3
[Na+].[OH-] [NaOH, sodium hydroxide solution] | – | – | product formation rate by pH regulation agent (CHO [1]; NaOH versus Na2CO3, FIG. 4): better product formation rate
